pKi: −log10 of the molar value.
Legend:
[1] = target: T1, recombinant human caspase 3 (Homo sapiens, UniProt P42574); experiment: Caspase inhibition assay, standard fluorometric assay with Ac-DEVD-AMC; type: biochemical; conditions: Ki(app) = IC50/(1 + [S]/KM), [S] = 10 μM Ac-DEVD-AMC, 37° C., pH 7.5
T1 construct: Recombinant full-length human caspase-3 was purified as described previously [21b]; made in house
T1 sequence (P42574 29-175 limits assumed): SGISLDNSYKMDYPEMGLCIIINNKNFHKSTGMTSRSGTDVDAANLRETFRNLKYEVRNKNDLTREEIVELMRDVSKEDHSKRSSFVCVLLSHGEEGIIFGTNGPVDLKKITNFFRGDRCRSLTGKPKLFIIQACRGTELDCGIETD
T1 sequence (P42574 176-277 limits assumed): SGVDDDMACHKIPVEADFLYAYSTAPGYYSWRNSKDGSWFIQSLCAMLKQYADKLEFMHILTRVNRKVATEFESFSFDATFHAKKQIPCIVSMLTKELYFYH
Protocol: The inhibition of recombinant human caspase 3 by twentythree isatin sulfonamides (twenty
Recombinant full-length human caspase-3 was purified as described previously [21b]. […] Enzyme assays were performed in a 200 μl volume at 37° C. in reaction buffer containing 0.1% CHAPS, 50 mM KCl, 5 mM β-mercaptoethanol, 25 mM HEPES (pH 7.5) and nonradioactive isatins in DMSO each in single doses (end concentrations 500 μM, 50 μM, 5 μM, 500 nM, 50 nM, 5 nM, 500 pM, 50 pM or 5 pM). […] After 10 min incubation time Ac-DEVD-AMC (end concentration 10 μM) was added and reacted for further 10 min. […] The IC50-values were determined by non-linear regression analysis using the XMGRACE program (Linux software) and converted into the corresponding Ki-values by the equation Ki=IC50/(1+[S]/KM) assuming competitive inhibition by the isatin derivatives, where [S] is the concentration and KM is the Michaelis constant of substrate Ac-DEVD-AMC.

active caspase-3 = target: T2, active caspase-3 (Homo sapiens, UniProt P42574); experiment: Cellular caspase assay: growth factor withdrawal-induced apoptosis in HUVEC, Western blot; type: cell-based; conditions: 8 hours, at 10 μM (FIGS. 1 and 2)
T2 construct: endogenous in cells; host or cells: HUVEC
T2 sequence (P42574 29-175 limits assumed): T1 sequence (P42574 29-175 limits assumed)
T2 sequence (P42574 176-277 limits assumed): T1 sequence (P42574 176-277 limits assumed)
Protocol: In the context of cellular apoptosis assays concentration- and time-dependent kinetics of mentioned CbRs and CbR-transporter conjugates are performed to evaluate the pharmacological inhibition of apoptosis in viable apoptotic cells (e.g. growth factor withdrawal-induced, drug-induced, or ionizing radiation-induced apoptosis in endothelial cells).
HUVEC (Human umbilical vein endothelial cells) were cultivated on gelatine (2%)-coated dishes in RPMI-1640 containing 15% bovine calf serum, 1% Pen/Strep/Amph, 1% Heparin and 0.05 mg/ml bovine pituitary extract (BPE) at 37° C. in 5% CO2. Apoptosis was induced by growth factor withdrawal as previously described. For caspase inhibition experiments, cells were pre-incubated for 30 min with the compounds in the indicated concentrations. The medium was then removed and replaced with RPMI-1640 without serum or BPE, and the cells were incubated in the presence or absence of the various inhibitor concentrations for 8 hours. All cells were then harvested in lysis buffer, incubated for 10 min on ice, and cell debris was removed by centrifugation at 14000 rpm at 4° C. for 10 min. Protein concentration was determined by the Pierce protein assay, and 30 μg cell lysate were loaded on 15% SDS-Page gels and transferred to Immobilon PVDF membranes. Western blots were performed with antibodies to active caspase-3 (Cell Signaling) and developed using ECL (Amersham).
A quantitative (pharmacological) inhibition of before mentioned target caspases with the non-radioactive PET- or SPECT-compatible CbRs of presented invention needs macroscopic amounts of the inhibitor, i.e. concentrations of caspase inhibitor that are definitely more than necessarily needed for molecular imaging purposes.

[2] = Small-animal PET biodistribution after i.v. injection; type: in vivo, WT Mouse (Nu/Nu); conditions: mouse, 180 min p.i.
Protocol: PET was performed using a high-resolution dedicated small-animal PET system (32-module quadHIDAC; Oxford Positron Systems) which uses multiwire chamber detectors with submillimeter-resolution potency. For each data acquisition, up to two mice were placed on a heating pad to maintain a normal body temperature. The animals were anesthetised by inhalation of isoflurane (1.5%) and intravenously injected with approximately 7 MBq of each radiotracer in 100 μL isotonic as well as isohydric solution.
A small-animal PET scan was performed with the quadHIDAC device to trace the in vivo biodistribution behavior of the PET-compatible CbR (S)-1-(4-(2[<18>F]fluoroethoxy)benzyl)-5-[1-(2-methoxymethylpyrrolidinyl)-sulfonyl]isatin [<18>F]VI. Immediately after i.v. injection of [<18>F]VI (A=7MBq, pH=8, A5=48 GBq/[mu]mol, V=100 [mu]1 in sodium bicarbonate buffered saline solution) data acquisition was started. List-mode data were acquired for 180 min and subsequently reconstructed into an image volume of 90×90×120 mm<3>, voxel size 0.4×0.4×0.4 mm<3>, using an iterative reconstruction algorithm (OPL-EM). […] Mentioned hot spot remains even 6 h p.i. (data not shown).

SMILES | pKi [1] | melting point | further results
Cc1ccc(S(=O)(=O)OCCOc2ccc(CN3C(=O)C(=O)c4cc(S(=O)(=O)N5CCC[C@H]5COc5ccccc5)ccc43)cc2)cc1 [Va, (S)-1-(4-(2-(p-methylphenylsulfonyloxy)ethoxy)benzyl)-5-[1-(2-phenoxymethylpyrrolidinyl)sulfonyl]isatin] | 7.77 |  | 
COC[C@@H]1CCCN1S(=O)(=O)c1ccc2c(c1)C(=O)C(=O)N2Cc1ccc(OCCBr)cc1 [VIaa, (S)-1-(4-(2-bromoethoxy)benzyl)-5-[1-(2-methoxymethylpyrrolidinyl)-sulfonyl]isatin] | 7.89 | 61 to 62 °C | 
C[Si](C)(C)c1ccc(CN2C(=O)C(=O)c3cc(S(=O)(=O)N4CCC[C@H]4COc4ccccc4)ccc32)cc1 [1b, (S)-5-[1-(2-phenoxymethylpyrrolidinyl)sulfonyl]-1-(4-trimethylsilylbenzyl)-isatin] | 9.15 | 128 to 130 °C (dec.) | 
COC[C@@H]1CCCN1S(=O)(=O)c1ccc2c(c1)C(=O)C(=O)N2Cc1ccc(OCC[18F])cc1 [[^18F]VI, (S)-1-(4-(2-[^18F]Fluoroethoxy)benzyl)-5-[1-(2-methoxymethylpyrrolidinyl)-sulfonyl]isatin] |  |  | clearance of radioactivity from peripheral organs (PET) ([2]; 7 MBq, all peripheral organs (FIG. 3)): cleared; remaining radioactivity (PET) ([2]; hot spot (putatively gall bladder) remains even 6 h p.i.): only remains in the bowels and in a hot spot nearby the liver
COC[C@@H]1CCCN1S(=O)(=O)c1ccc2c(c1)C(=O)C(=O)N2Cc1ccc(OCCOS(=O)(=O)c2ccc(C)cc2)cc1 [VIa, (S)-1-(4-(2-(p-methylphenylsulfonyloxy)ethoxy)benzyl)-5-[1-(2-methoxymethylpyrrolidinyl)sulfonyl]isatin] | 8.70 | 61 to 62 °C | 
CC(C)(C)[Si](C)(C)Oc1ccc(CN2C(=O)C(=O)c3cc(S(=O)(=O)N4CCC[C@H]4COc4ccccc4)ccc32)cc1 [IIIab, (S)-1-(p-tert-butyldimethylsilyloxybenzyl)-5-[1-(2-phenoxymethylpyrrolidinyl)sulfonyl]-isatin] | 7.70 |  | 
COC[C@@H]1CCCN1S(=O)(=O)c1ccc2c(c1)C(=O)C(=O)N2Cc1ccc(I)cc1 [compound 2, (S)-1-(4-iodobenzyl)-5-[1-(2-methoxymethylpyrrolidinyl)sulfonyl]isatin] | 7.96 | 129 to 130 °C | inhibition of caspase progression (Western blot, active caspase-3) (active caspase-3): recognizable
O=C1C(=O)N(Cc2ccc(Br)cc2)c2ccc(S(=O)(=O)N3CCC[C@H]3COc3ccccc3)cc21 [1c, (S)-(+)-1-(4-bromobenzyl)-5-[1-(2-phenoxymethylpyrrolidinyl)sulfonyl]isatin] | 8.52 |  | 
O=C1C(=O)N(Cc2ccc(I)cc2)c2ccc(S(=O)(=O)N3CCC[C@H]3COc3ccccc3)cc21 [compound 1, (S)-1-(4-iodobenzyl)-5-[1-(2-phenoxymethylpyrrolidinyl)sulfonyl]isatin] |  | 88 to 90 °C | 
COC[C@@H]1CCCN1S(=O)(=O)c1ccc2c(c1)C(=O)C(=O)N2Cc1ccc(OCCF)cc1 [VI, (S)-1-(4-(2-fluoroethoxy)benzyl)-5-[1-(2-methoxymethylpyrrolidinyl)sulfonyl]isatin] | 7.44 |  | inhibition of caspase progression (Western blot, active caspase-3) (active caspase-3): recognizable
O=C1C(=O)N(Cc2ccc(OCc3ccccc3)cc2)c2ccc(S(=O)(=O)N3CCC[C@H]3COc3ccccc3)cc21 [IIIaa, (S)-(+)-1-(4-benzyloxybenzyl)-5-[1-(2-phenoxymethylpyrrolidinyl)-sulfonyl]isatin] | 8.16 | 69 to 70 °C | 
O=C1C(=O)N(Cc2ccc(OCCBr)cc2)c2ccc(S(=O)(=O)N3CCC[C@H]3COc3ccccc3)cc21 [Vaa, (S)-1-(4-(2-bromoethoxy)benzyl)-5-[1-(2-phenoxymethylpyrrolidinyl)sulfonyl]isatin] | 7.60 | 162 to 163 °C | 

Second part, led by results:

pKi [1] | melting point | SMILES | further results
7.11 |  | COC[C@@H]1CCCN1S(=O)(=O)c1ccc2c(c1)C(=O)C(=O)N2 [IIa, (S)-5-(1-[2-(methoxymethyl)pyrrolidinyl]-sulfonyl)isatin, reference compound] | 
8.70 | 143 to 144 °C | COC[C@@H]1CCCN1S(=O)(=O)c1ccc2c(c1)C(=O)C(=O)N2C [II, (S)-5-[1-(2-methoxymethylpyrrolidinyl)sulfonyl]-1-methyl-isatin] | inhibition of caspase progression (Western blot, active caspase-3) (active caspase-3): recognizable
8.30 | 73 to 74 °C | COC[C@@H]1CCCN1S(=O)(=O)c1ccc2c(c1)C(=O)C(=O)N2Cc1ccc(OCc2ccccc2)cc1 [IVaa, (S)-(+)-1-(4-benzyloxybenzyl)-5-[1-(2-methoxymethylpyrrolidinyl)-sulfonyl]isatin] | 
8.40 |  | COC[C@@H]1CCCN1S(=O)(=O)c1ccc2c(c1)C(=O)C(=O)N2Cc1ccc(O[Si](C)(C)C(C)(C)C)cc1 [IVab, (S)-1-(p-tert-butyldimethylsilyloxybenzyl)-5-[1-(2-methoxymethylpyrrolidinyl)sulfonyl]-isatin] | 
8.52 |  | O=C1C(=O)N(Cc2ccc(O)cc2)c2ccc(S(=O)(=O)N3CCC[C@H]3COc3ccccc3)cc21 [IIIa, (S)-1-(p-hydroxybenzyl)-5-[1-(2-phenoxymethylpyrrolidinyl)sulfonyl]isatin] | 
7.35 |  | COC[C@@H]1CCCN1S(=O)(=O)c1ccc2c(c1)C(=O)C(=O)N2Cc1ccc(O)cc1 [IVa, (S)-1-(p-hydroxybenzyl)-5-[1-(2-methoxymethylpyrrolidinyl)sulfonyl]isatin] | 
9.40 |  | O=C1C(=O)N(Cc2ccc(OCCF)cc2)c2ccc(S(=O)(=O)N3CCC[C@H]3COc3ccccc3)cc21 [V, (S)-1-(4-(2-fluoroethoxy)benzyl)-5-[1-(2-phenoxymethylpyrrolidinyl)sulfonyl]isatin] | 
8.05 |  | COC[C@@H]1CCCN1S(=O)(=O)c1ccc2c(c1)C(=O)C(=O)N2Cc1ccc(OC)cc1 [IV, (S)-1-(4-methoxybenzyl)-5-[1-(2-methoxymethylpyrrolidinyl)sulfonyl]isatin] | inhibition of caspase progression (Western blot, active caspase-3) (active caspase-3): recognizable
